# Species: Rattus norvegicus
# Experiment: Open TG-GATES - Regimen: Daily Repeat
# Type: toxicity, organism-based, Sprague-Dawley
# Design: regimen Daily Repeat, gender Male, age 6 weeks
# Conditions: in vivo, po, route gavage; for Bas / Eos / Fbg / Ht / MCHC / Mono / Plat / RBC / Ret / WBC / MCV: tissue Blood; for KIDNEY_L / KIDNEY_R / KIDNEY_TOTAL: tissue Kidney; for ALT / AST / CRE / DBIL / GLC / IP / K / LDH / PL / RALB / TBIL / TC / TG / TP / gamma-GTP: tissue Plasma
# [1] = 100 mg/kg, 72 h, dose level Middle, time 3 day
# [2] = 100 mg/kg, […], dose level Middle, time 7 day
# [3] = 100 mg/kg, […], dose level Middle, time 14 day
# [4] = 100 mg/kg, […], dose level Middle, time 28 day
# [5] = 1000 mg/kg, 72 h, dose level High, time 3 day
# [6] = 1000 mg/kg, […], dose level High, time 7 day
# [7] = 1000 mg/kg, […], dose level High, time 14 day
# [8] = 1000 mg/kg, […], dose level High, time 28 day
compound,measurement,setting,value
CC(C)OC(=O)C(C)(C)Oc1ccc(C(=O)c2ccc(Cl)cc2)cc1 [FENOFIBRATE],TERMINAL_BW,[1],219 g
same,Bas,[1],0.2%
same,Eos,[1],1%
same,Fbg,[1],242.4 mg/dL
same,Ht,[1],40.5%
same,MCHC,[1],32.9%
same,Mono,[1],3.4%
same,Plat,[1],110.8 x10_4/uL
same,RBC,[1],619.6 x10_4/ul
same,Ret,[1],6.7%
same,WBC,[1],92.3 x10_2/uL
same,KIDNEY_L,[1],1 g
same,KIDNEY_R,[1],1 g
same,KIDNEY_TOTAL,[1],1.9 g
same,ALT,[1],52 IU/L
same,AST,[1],77.6 IU/L
same,CRE,[1],0.2 mg/dL
same,DBIL,[1],0.012 mg/dL
same,GLC,[1],184.2 mg/dL
same,IP,[1],7.5 mg/dL
same,K,[1],4.1 meq/L
same,LDH,[1],90 IU/L
same,PL,[1],118.6 mg/dL
same,RALB,[1],2.6 g/dL
same,TBIL,[1],0.034 mg/dL
same,TC,[1],58.6 mg/dL
same,TG,[1],41.6 mg/dL
same,TP,[1],5.5 g/dL
same,gamma-GTP,[1],1.2 IU/L
same,TERMINAL_BW,[2],251.5 g
same,TERMINAL_BW,[3],311 g
same,TERMINAL_BW,[4],352.5 g
same,Bas,[2],0.2%
same,Eos,[2],1%
same,Fbg,[2],232.2 mg/dL
same,Ht,[2],40.3%
same,MCHC,[2],32.4%
same,Mono,[2],4%
same,Plat,[2],127.1 x10_4/uL
same,RBC,[2],650.8 x10_4/ul
same,Ret,[2],5.7%
same,WBC,[2],98.5 x10_2/uL
same,Bas,[3],0%
same,Eos,[3],0.8%
same,Fbg,[3],230 mg/dL
same,Ht,[3],40.9%
same,MCHC,[3],32.9%
same,Mono,[3],3.2%
same,Plat,[3],131.7 x10_4/uL
same,RBC,[3],660.8 x10_4/ul
same,Ret,[3],5.1%
same,WBC,[3],106.3 x10_2/uL
same,Bas,[4],0.8%
same,Eos,[4],1.2%
same,Fbg,[4],207.2 mg/dL
same,Ht,[4],44.3%
same,MCHC,[4],33.6%
same,MCV,[4],56.8 fL
same,Mono,[4],3.2%
same,Plat,[4],107.6 x10_4/uL
same,RBC,[4],780.8 x10_4/ul
same,Ret,[4],2.4%
same,WBC,[4],148.1 x10_2/uL
same,KIDNEY_L,[2],1.1 g
same,KIDNEY_R,[2],1.1 g
same,KIDNEY_TOTAL,[2],2.2 g
same,KIDNEY_L,[3],1.3 g
same,KIDNEY_R,[3],1.3 g
same,KIDNEY_TOTAL,[3],2.6 g
same,KIDNEY_L,[4],1.4 g
same,KIDNEY_R,[4],1.4 g
same,KIDNEY_TOTAL,[4],2.8 g
same,ALT,[2],41.2 IU/L
same,AST,[2],67.8 IU/L
same,CRE,[2],0.2 mg/dL
same,DBIL,[2],0.012 mg/dL
same,GLC,[2],186.8 mg/dL
same,IP,[2],8 mg/dL
same,K,[2],4.3 meq/L
same,LDH,[2],126.2 IU/L
same,PL,[2],119.8 mg/dL
same,RALB,[2],2.8 g/dL
same,TBIL,[2],0.028 mg/dL
same,TC,[2],55.6 mg/dL
same,TG,[2],47.4 mg/dL
same,TP,[2],5.9 g/dL
same,gamma-GTP,[2],1 IU/L
same,ALT,[3],43 IU/L
same,AST,[3],69 IU/L
same,CRE,[3],0.2 mg/dL
same,DBIL,[3],0.014 mg/dL
same,GLC,[3],192.8 mg/dL
same,IP,[3],6.9 mg/dL
same,K,[3],4.1 meq/L
same,LDH,[3],106.8 IU/L
same,PL,[3],135.2 mg/dL
same,RALB,[3],2.8 g/dL
same,TBIL,[3],0.026 mg/dL
same,TC,[3],57.8 mg/dL
same,TG,[3],78 mg/dL
same,TP,[3],6 g/dL
same,gamma-GTP,[3],1 IU/L
same,ALT,[4],47.6 IU/L
same,AST,[4],69.2 IU/L
same,CRE,[4],0.2 mg/dL
same,DBIL,[4],0.016 mg/dL
same,GLC,[4],179 mg/dL
same,IP,[4],7.6 mg/dL
same,K,[4],3.8 meq/L
same,LDH,[4],110.8 IU/L
same,PL,[4],129.8 mg/dL
same,RALB,[4],3 g/dL
same,TBIL,[4],0.036 mg/dL
same,TC,[4],55 mg/dL
same,TG,[4],60.2 mg/dL
same,TP,[4],6.5 g/dL
same,gamma-GTP,[4],1.2 IU/L
same,TERMINAL_BW,[5],215.9 g
same,Bas,[5],0.4%
same,Eos,[5],1%
same,Fbg,[5],208.2 mg/dL
same,Ht,[5],39.5%
same,MCHC,[5],33%
same,Mono,[5],3.6%
same,Plat,[5],105.8 x10_4/uL
same,RBC,[5],610.6 x10_4/ul
same,Ret,[5],5.6%
same,WBC,[5],91.7 x10_2/uL
same,KIDNEY_L,[5],0.9 g
same,KIDNEY_R,[5],1 g
same,KIDNEY_TOTAL,[5],1.9 g
same,ALT,[5],51.4 IU/L
same,AST,[5],83.8 IU/L
same,CRE,[5],0.2 mg/dL
same,DBIL,[5],0.022 mg/dL
same,GLC,[5],176.8 mg/dL
same,IP,[5],7.3 mg/dL
same,K,[5],4.3 meq/L
same,LDH,[5],105.8 IU/L
same,PL,[5],129.2 mg/dL
same,RALB,[5],2.6 g/dL
same,TBIL,[5],0.048 mg/dL
same,TC,[5],57 mg/dL
same,TG,[5],33.6 mg/dL
same,TP,[5],5.4 g/dL
same,gamma-GTP,[5],1 IU/L
same,TERMINAL_BW,[6],248.7 g
same,TERMINAL_BW,[7],269.5 g
same,TERMINAL_BW,[8],320.8 g
same,Bas,[6],0%
same,Eos,[6],1%
same,Fbg,[6],222.2 mg/dL
same,Ht,[6],39.1%
same,MCHC,[6],32.3%
same,Mono,[6],3.4%
same,Plat,[6],147.3 x10_4/uL
same,RBC,[6],612.2 x10_4/ul
same,Ret,[6],5.8%
same,WBC,[6],113.4 x10_2/uL
same,Bas,[7],0.4%
same,Eos,[7],1%
same,Fbg,[7],192.8 mg/dL
same,Ht,[7],39.9%
same,MCHC,[7],33.3%
same,MCV,[7],58.7 fL
same,Mono,[7],3.4%
same,Plat,[7],135.5 x10_4/uL
same,RBC,[7],679.4 x10_4/ul
same,Ret,[7],5.1%
same,WBC,[7],149.7 x10_2/uL
same,Bas,[8],0.4%
same,Eos,[8],1.2%
same,Fbg,[8],194.2 mg/dL
same,Ht,[8],40.9%
same,MCHC,[8],33.4%
same,MCV,[8],57.2 fL
same,Mono,[8],3.4%
same,Plat,[8],117.4 x10_4/uL
same,RBC,[8],716 x10_4/ul
same,Ret,[8],3.9%
same,WBC,[8],132.1 x10_2/uL
same,KIDNEY_L,[6],1.1 g
same,KIDNEY_R,[6],1.1 g
same,KIDNEY_TOTAL,[6],2.2 g
same,KIDNEY_L,[7],1.2 g
same,KIDNEY_R,[7],1.2 g
same,KIDNEY_TOTAL,[7],2.4 g
same,KIDNEY_L,[8],1.4 g
same,KIDNEY_R,[8],1.4 g
same,KIDNEY_TOTAL,[8],2.8 g
same,ALT,[6],45.8 IU/L
same,AST,[6],80.6 IU/L
same,CRE,[6],0.2 mg/dL
same,DBIL,[6],0.018 mg/dL
same,GLC,[6],178.8 mg/dL
same,IP,[6],7.4 mg/dL
same,K,[6],4.4 meq/L
same,LDH,[6],122.6 IU/L
same,PL,[6],142 mg/dL
same,RALB,[6],3 g/dL
same,TBIL,[6],0.034 mg/dL
same,TC,[6],65.8 mg/dL
same,TG,[6],38 mg/dL
same,TP,[6],6.1 g/dL
same,gamma-GTP,[6],1 IU/L
same,ALT,[7],70 IU/L
same,AST,[7],160.6 IU/L
same,CRE,[7],0.2 mg/dL
same,DBIL,[7],0.022 mg/dL
same,GLC,[7],170.2 mg/dL
same,IP,[7],6.6 mg/dL
same,K,[7],4.1 meq/L
same,LDH,[7],226.2 IU/L
same,PL,[7],138 mg/dL
same,RALB,[7],2.9 g/dL
same,TBIL,[7],0.052 mg/dL
same,TC,[7],50.6 mg/dL
same,TG,[7],45.4 mg/dL
same,TP,[7],6 g/dL
same,gamma-GTP,[7],1 IU/L
same,ALT,[8],55.8 IU/L
same,AST,[8],132 IU/L
same,CRE,[8],0.2 mg/dL
same,DBIL,[8],0.024 mg/dL
same,GLC,[8],176 mg/dL
same,IP,[8],7.3 mg/dL
same,K,[8],3.7 meq/L
same,LDH,[8],205.2 IU/L
same,PL,[8],139.8 mg/dL
same,RALB,[8],2.9 g/dL
same,TBIL,[8],0.06 mg/dL
same,TC,[8],62.4 mg/dL
same,TG,[8],47.6 mg/dL
same,TP,[8],6.2 g/dL
same,gamma-GTP,[8],1.2 IU/L
